According to patent US7338958B2, “Sulfoximine-substituted pyrimidines as CDK-and/or VEGF inhibitors, their production and use as pharmaceutical agents” (Schering AG, priority 2003, dated 2008):
Counter-ions that a name gives are not always drawn.

Experiments:
[1] = system: MCF7, hormone-independent human breast cancer cells; assay: Proliferation assay, MCF7; assay type: cell-based; settings: MCF7, 96 h, 4 days incubation, crystal violet
In short: (§1)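 Cells seeded ~5000/well, treated after 24 h with 0.01-30 μM compound (0.5% DMSO) for 4 days. Glutaraldehyde-fixed cells stained with crystal violet, absorbance at 595 nm; growth expressed as percent, normalized to zero-point plate (0%) and untreated cells (100%).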

[2] = system: NCI-H460, human non-small-cell lung cancer cells; assay: Proliferation assay, H460; assay type: cell-based; settings: NCI-H460, 96 h, 4 days incubation, crystal violet
Source text: (§2) Cultivated human tumor cells (MCF7, hormone-independent human breast cancer cells, related to ATCC HTB22; NCI-H460, human non-small-cell lung cancer cells, ATCC HTB-177, HCT 116, human colon cancer cells, ATCC CCL-247; DU 145, hormone-independent human prostate cancer cells, ATCC HTB-81; MaTu-MDR, hormone-independent, multiple pharmaceutical agent-resistant human breast cancer cells, EPO-GmbH, Berlin) were flattened out at a density of about 5000 cells/measuring point, depending on the growth rate of the respective cells, in a 96-well multititer plate in 200 μl of the corresponding growth medium. After 24 hours, the cells of one plate (zero-point plate) were colored with crystal violet (see below), while the medium of the other plates was replaced by fresh culture medium (200 μl), to which the test substances were added in various concentrations (0 μm, as well as in the range of 0.01-30 μm; the final concentration of the solvent dimethyl sulfoxide was 0.5%). The cells were incubated for 4 days in the presence of test substances. The cell proliferation was determined by coloring the cells with crystal violet: the cells were fixed by adding 20 μl/measuring point of an 11% glutaric aldehyde solution for 15 minutes at room temperature. After three washing cycles of the fixed cells with water, the plates were dried at room temperature. The cells were colored by adding 100 μl/measuring point of a 0.1% crystal violet solution (the pH was set at 3 by adding acetic acid). After three washing cycles of the colored cells with water, the plates were dried at room temperature. The dye was dissolved by adding 100 μl/measuring point of a 10% acetic acid solution. The extinction was determined by photometry at a wavelength of 595 nm. The change of cell growth, in percent, was calculated by normalization of the measured values to the extinction values of the zero-point plate (=0%) and the extinction of the untreated (0 μm) cells (=100%).

[3] = system: HCT 116, human colon cancer cells; assay: Proliferation assay, HCT116; assay type: cell-based; settings: HCT-116, 96 h, 4 days incubation, crystal violet
Source text: as §2

[4] = system: DU 145, hormone-independent human prostate cancer cells; assay: Proliferation assay, DU145; assay type: cell-based; settings: DU-145, 96 h, 4 days incubation, crystal violet
In short: as §1

MaTu-ADR = assay: Proliferation assay, MaTu-ADR; assay type: cell-based; settings: Homo sapiens, 96 h, MaTu-ADR cells, 4 days incubation, crystal violet
Source text: as §2

CDK1/CycB = target: T1, CDK1/CycB (Homo sapiens, UniProt P06493); assay: CDK1/CycB Kinase Assay; assay type: biochemical; settings: histone IIIS substrate, 33P-ATP, 15 minutes at 22° C.
T1 construct: GST; purchased ProQinase GmbH, Freiburg; host or cells: baculovirus-infected insect cells (Sf9)

[5] = target: T2, VEGF receptor tyrosine kinase-2 (Homo sapiens, UniProt P35968); assay: VEGF Receptor-2 Kinase Assay; assay type: biochemical; settings: poly-(Glu4Tyr) substrate, 33P-ATP, 10 minutes at 22° C.; read-out: VEGF-R2 IC50
T2 construct: GST; made in house; host or cells: baculovirus-infected insect cells (Sf9)

CDK2/CycE = target: T3, CDK2/CycE (Homo sapiens, UniProt P24941); assay: CDK2/CycE Kinase Assay; assay type: biochemical; settings: histone IIIS substrate, 33P-ATP, 15 minutes at 22° C.
T3 construct: GST; purchased ProQinase GmbH, Freiburg; host or cells: baculovirus-infected insect cells (Sf9)
In short: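 Recombinant GST-tagged CDK2/CycE from Sf9 cells (50 ng/point) was incubated with compound (0.01-100 μM) for 15 min at 22° C, pH 8.0, with 0.5 μM ATP plus ^33P-γ-ATP and histone IIIS as substrate, in 12.5% DMSO. Incorporated ^33P was counted after filter binding and washing.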

T2 sequence (P35968 20-1356): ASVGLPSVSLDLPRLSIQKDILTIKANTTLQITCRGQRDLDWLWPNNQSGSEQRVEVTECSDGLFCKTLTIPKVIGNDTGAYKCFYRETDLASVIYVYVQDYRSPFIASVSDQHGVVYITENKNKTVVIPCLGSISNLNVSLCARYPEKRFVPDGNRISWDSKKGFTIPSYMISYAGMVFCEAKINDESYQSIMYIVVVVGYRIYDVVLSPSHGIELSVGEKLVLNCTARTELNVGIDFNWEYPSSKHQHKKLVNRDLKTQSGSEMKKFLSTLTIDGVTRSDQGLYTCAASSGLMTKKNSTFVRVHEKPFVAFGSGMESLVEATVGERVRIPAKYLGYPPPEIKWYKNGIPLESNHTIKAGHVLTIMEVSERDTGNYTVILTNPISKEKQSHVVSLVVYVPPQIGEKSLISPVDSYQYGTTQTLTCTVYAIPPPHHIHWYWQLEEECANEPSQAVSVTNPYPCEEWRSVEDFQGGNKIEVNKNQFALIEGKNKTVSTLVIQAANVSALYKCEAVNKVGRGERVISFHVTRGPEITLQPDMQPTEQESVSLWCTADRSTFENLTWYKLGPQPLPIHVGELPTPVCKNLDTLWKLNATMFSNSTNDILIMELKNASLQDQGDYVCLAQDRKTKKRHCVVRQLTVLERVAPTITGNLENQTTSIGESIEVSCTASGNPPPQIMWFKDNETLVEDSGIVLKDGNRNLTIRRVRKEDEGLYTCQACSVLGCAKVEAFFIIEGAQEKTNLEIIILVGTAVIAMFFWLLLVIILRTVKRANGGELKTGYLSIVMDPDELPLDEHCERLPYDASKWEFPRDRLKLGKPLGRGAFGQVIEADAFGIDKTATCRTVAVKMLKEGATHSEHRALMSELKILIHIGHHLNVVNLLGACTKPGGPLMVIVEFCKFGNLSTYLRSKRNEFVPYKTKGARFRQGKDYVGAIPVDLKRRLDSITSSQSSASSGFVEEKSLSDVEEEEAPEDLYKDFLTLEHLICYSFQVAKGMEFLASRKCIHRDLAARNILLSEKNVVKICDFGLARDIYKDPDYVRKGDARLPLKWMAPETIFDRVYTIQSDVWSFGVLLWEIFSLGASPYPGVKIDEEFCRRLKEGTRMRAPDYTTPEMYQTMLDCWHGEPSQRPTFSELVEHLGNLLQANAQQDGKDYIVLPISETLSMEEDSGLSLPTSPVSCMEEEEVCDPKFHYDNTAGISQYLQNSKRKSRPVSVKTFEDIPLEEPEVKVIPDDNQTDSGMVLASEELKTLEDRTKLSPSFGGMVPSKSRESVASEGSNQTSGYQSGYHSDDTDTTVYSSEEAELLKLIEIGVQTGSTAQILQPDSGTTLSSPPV
T1 sequence (P06493 whole entry): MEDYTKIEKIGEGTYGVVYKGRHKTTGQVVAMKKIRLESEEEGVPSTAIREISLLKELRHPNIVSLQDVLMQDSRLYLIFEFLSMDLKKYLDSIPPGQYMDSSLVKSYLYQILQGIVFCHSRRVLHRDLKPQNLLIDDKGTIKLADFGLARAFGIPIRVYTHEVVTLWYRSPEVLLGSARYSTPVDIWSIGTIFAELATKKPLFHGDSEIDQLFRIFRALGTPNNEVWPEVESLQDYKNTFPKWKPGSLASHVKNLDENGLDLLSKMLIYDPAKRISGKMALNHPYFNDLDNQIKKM
T1 sequence (P14635 whole entry partner): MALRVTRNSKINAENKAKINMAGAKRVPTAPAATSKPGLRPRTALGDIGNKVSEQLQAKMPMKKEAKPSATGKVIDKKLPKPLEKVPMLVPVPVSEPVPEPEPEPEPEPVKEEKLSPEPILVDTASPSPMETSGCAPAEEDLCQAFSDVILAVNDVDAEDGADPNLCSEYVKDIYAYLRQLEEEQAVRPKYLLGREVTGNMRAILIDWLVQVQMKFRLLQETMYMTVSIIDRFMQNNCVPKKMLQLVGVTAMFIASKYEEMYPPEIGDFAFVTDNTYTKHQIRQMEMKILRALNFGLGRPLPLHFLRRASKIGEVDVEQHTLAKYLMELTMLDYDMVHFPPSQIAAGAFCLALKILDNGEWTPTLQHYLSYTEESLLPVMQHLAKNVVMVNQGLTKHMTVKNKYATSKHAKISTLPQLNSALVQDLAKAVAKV

Compound `C[C@@H](O)[C@@H](C)Oc1nc(Nc2ccc(S(C)(=N)=O)cc2)ncc1Br` (mixture of isomers) [Example 1.4, (RS)-S-[4-({5-bromo-4-[(1R,2R)-2-hydroxy-1-methylpropoxy]pyrimidin-2-yl}amino)phenyl]-S-methyl sulfoximide] has an IC50 [1] of 60 nM, an IC50 [2] of 60 nM and an IC50 [3] of 50 nM. The IC50 [4] was 100 nM, the IC50 (MaTu-ADR) was 80 nM and the IC50 (CDK1/CycB) was 13 nM. It also gave an IC50 [5] of 340 nM.
For `CCOC(=O)N=S(C)(=O)c1ccc(Nc2ncc(Br)c(N[C@H](C)C(C)(C)O)n2)cc1C` (mixture of isomers) [Example 1.37, (RS)-S-[4-({5-bromo-4-[(R)-(2-hydroxy-1,2-dimethylpropyl)amino]pyrimidin-2-yl}amino)-2-methylphenyl]-N-(ethoxycarbonyl)-S-methyl sulfoximide], the IC50 [1] was 170 nM, the IC50 [2] was under 100 nM and the IC50 [4] was 160 nM. For the same compound, the IC50 (MaTu-ADR) was 300 nM, the IC50 (CDK2/CycE) was 48 nM and the IC50 (CDK1/CycB) was 63 nM. For the same compound, the IC50 [5] was 57 nM.
`CCOC(=O)N=S(C)(=O)c1ccc(Nc2ncc(Br)c(N[C@H](C)[C@@H](C)O)n2)cc1C` (mixture of isomers) [Example 1.38, (RS)-S-[4-({5-bromo-4-[(1R,2R)-(2-hydroxy-1-methylpropyl)amino]pyrimidin-2-yl}amino)-2-methylphenyl]-N-(ethoxycarbonyl)-S-methyl sulfoximide] gave an IC50 [1] of 120 nM, an IC50 [2] of 60 nM and an IC50 [4] of 130 nM. The IC50 (MaTu-ADR) was 400 nM, the IC50 (CDK2/CycE) was 78 nM and the IC50 (CDK1/CycB) was 75 nM. For the same compound, the IC50 [5] was 59 nM.
With `CCOC(=O)N=S(C)(=O)c1ccc(Nc2ncc(Br)c(O[C@H](C)[C@@H](C)O)n2)cc1` (mixture of isomers) [Example 1.40, (RS)-S-[4-({5-bromo-4-[(1R,2R)-2-hydroxy-1-methylpropoxy]pyrimidin-2-yl}amino)phenyl]-N-(ethoxycarbonyl)-S-methyl sulfoximide] the IC50 [1] was 110 nM, the IC50 [2] was 170 nM and the IC50 [4] was 180 nM. The IC50 (MaTu-ADR) was 300 nM, the IC50 (CDK2/CycE) was 14 nM and the IC50 (CDK1/CycB) was 21 nM. The IC50 [5] was 110 nM.
For `Cc1cc(Nc2ncc(Br)c(N[C@H](C)[C@@H](C)O)n2)ccc1S(C)(=N)=O` (mixture of isomers) [Example 1.60, (RS)-S-[4-({5-bromo-4-[(1R,2R)-(2-hydroxy-1-methylpropyl)amino]pyrimidin-2-yl}amino)-2-methylphenyl]-S-methyl sulfoximide], the IC50 [1] was 60 nM, the IC50 [2] was 40 nM and the IC50 [4] was 40 nM. For the same compound, the IC50 (MaTu-ADR) was 40 nM, the IC50 (CDK2/CycE) was 4 nM and the IC50 (CDK1/CycB) was 4 nM. For the same compound, the IC50 [5] was 39 nM.
With `CCC(Sc1nc(Nc2ccc(S(C)(=N)=O)cc2)ncc1Br)C(C)=O` (racemic) (as salt: sodium) [Example 3.3, (RS)-S-[4-({4-[(RS)-(1-acetylpropyl)sulfanyl]-5-bromopyrimidin-2-yl}amino)phenyl]-S-methyl sulfoximide] the melting point was 192 to 194 °C.
With `C[C@H](CO)Nc1nc(Nc2ccc(S(=O)(CC3CC3)=NS(=O)(=O)CC[Si](C)(C)C)cc2)ncc1Br` (mixture of isomers) [Example 1.7, (RS)-S-[4-({5-bromo-4-[(R)-(2-hydroxy-1-methylethyl)amino]pyrimidin-2-yl}amino)phenyl]-S-(cyclopropylmethyl)-N-[2-(trimethylsilyl)ethylsulfonyl]sulfoximide] the melting point was 195 °C (dec.).
For `C[C@@H](Nc1nc(Nc2ccc(S(=O)(=NS(=O)(=O)CC[Si](C)(C)C)C3CCCC3)cc2)ncc1Br)C(C)(C)O` (mixture of isomers) [Example 1.10, (RS)-S-[4-({5-bromo-4-[(R)-(2-hydroxy-1,2-dimethylpropyl)amino]pyrimidin-2-yl}amino)phenyl]-S-cyclopentyl-N-[2-(trimethylsilyl)ethylsulfonyl]sulfoximide], the melting point was 200 to 201 °C.
`C[C@@H](Nc1nc(Nc2ccc(S(=N)(=O)C3CCCC3)cc2)ncc1Br)C(C)(C)O` (mixture of isomers) [Example 1.11, (RS)-S-[4-({5-bromo-4-[(R)-(2-hydroxy-1,2-dimethylpropyl)amino]pyrimidin-2-yl}amino)phenyl]-S-cyclopentylsulfoximide] gave a melting point of 194 to 196 °C.
For `C[C@H](CO)Nc1nc(Nc2ccc(S(C)(=O)=NS(=O)(=O)CC[Si](C)(C)C)cc2)ncc1Br` (mixture of isomers) [Example 2.1, (RS)-S-[4-({5-bromo-4-[(R)-(2-hydroxy-1-methylethyl)amino]pyrimidin-2-yl}amino)phenyl]-S-methyl-N-[2-(trimethylsilyl)ethylsulfonyl]sulfoximide], the melting point was 194 to 197 °C.
Compound `CCC(CO)Sc1nc(Nc2ccc(S(C)(=N)=O)cc2)ncc1Br` (racemic) [Example 3.0, (RS)-S-[4-({5-bromo-4-[(RS)-(1-hydroxymethyl-propyl)sulfanyl]pyrimidin-2-yl}amino)phenyl]-S-methyl sulfoximide] has an IC50 [1] of 500 nM, an IC50 (CDK2/CycE) of 16 nM and an IC50 (CDK1/CycB) of 49 nM. For the same compound, the IC50 [5] was 170 nM and the melting point was 175 to 180 °C.
`CCC(C)Sc1nc(Nc2ccc(S(C)(=N)=O)cc2)ncc1Br` (racemic) [Example 3.1, (RS)-S-[4-({5-bromo-4-[(RS)-(1-methyl-propyl)sulfanyl]pyrimidin-2-yl}amino)phenyl]-S-methyl sulfoximide] gave an IC50 [1] of 400 nM, an IC50 (CDK2/CycE) of 33 nM and an IC50 (CDK1/CycB) of 97 nM. For the same compound, the IC50 [5] was 120 nM and the melting point was 175 to 183 °C.
In the case of `CC(O)C(C)Sc1nc(Nc2ccc(S(C)(=N)=O)cc2)ncc1Br` (racemic) [Example 3.5, (RS)-S-[4-({5-bromo-4-[(RS,RS)-(2-hydroxy-1-methylpropyl)sulfanyl]pyrimidin-2-yl}amino)phenyl]-S-methyl sulfoximide], the IC50 [1] is reported as 120 nM, the IC50 [2] is reported as 50 nM and the IC50 [4] is reported as 60 nM. The IC50 (MaTu-ADR) was 30 nM, the IC50 (CDK2/CycE) was 8 nM and the IC50 (CDK1/CycB) was 17 nM. For the same compound, the IC50 [5] was 150 nM.
`CC(Sc1nc(Nc2ccc(S(C)(=N)=O)cc2)ncc1Br)C(C)(C)O` (racemic) [Example 3.7, (RS)-S-[4-({5-bromo-4-[(RS)-(2-hydroxy-1,2-dimethylpropyl)sulfanyl]pyrimidin-2-yl}amino)phenyl]-S-methyl sulfoximide] gave an IC50 [1] of 100 nM, an IC50 [2] of under 100 nM and an IC50 [4] of under 100 nM. For the same compound, the IC50 (MaTu-ADR) was under 100 nM, the IC50 (CDK1/CycB) was 19 nM and the melting point was 201 to 202 °C.
Work on `CCC(Sc1nc(Nc2ccc(S(C)(=N)=O)cc2)ncc1Br)C(C)(C)O` (racemic) [Example 3.8, (RS)-S-[4-({5-bromo-4-[(RS)-(1-ethyl-2-hydroxy-2-methylpropyl)sulfanyl]pyrimidin-2-yl}amino)phenyl]-S-methyl sulfoximide] yielded an IC50 [1] of 400 nM, an IC50 [2] of 300 nM and an IC50 [4] of 300 nM. The IC50 (MaTu-ADR) was 190 nM, the IC50 (CDK2/CycE) was 27 nM and the IC50 [5] was over 1000 nM. The melting point was 218 °C (dec.).
`CC(CO)Sc1nc(Nc2ccc(S(C)(=N)=O)cc2)ncc1Br` (racemic) [Example 3.10, (RS)-S-[4-({5-bromo-4-[(RS)-(2-hydroxy-1-methyl-ethyl)sulfanyl]pyrimidin-2-yl}amino)phenyl]-S-methyl sulfoximide] gave an IC50 [1] of 400 nM, an IC50 (CDK2/CycE) of 4 nM and an IC50 (CDK1/CycB) of 18 nM. It also gave a melting point of 218 to 220 °C.
In the case of `C[C@@H](Nc1nc(Nc2ccc(S(C)(=N)=O)cc2)ncc1Br)C(C)(C)O` (single isomer, unassigned) [Example 1.3], the IC50 [1] is reported as under 100 nM, the IC50 [3] is reported as 100 nM and the IC50 [4] is reported as 200 nM. It also gave an IC50 (MaTu-ADR) of 170 nM.
